Data reported in US20240391875A1, “ISOQUINOLINONES AND QUINOLINONES AS MODULATORS OF POLRMT” (Pretzel Therapeutics, Inc., priority 2021, published 2024).

Each compound was assayed against POLRMT (Homo sapiens, UniProt O00411) (assay: homogeneous TR-FRET assay of mitochondrial transcription (inhibition of POLRMT)). Conditions: isoquinolinone compounds (Table 1).
Format: biochemical
Description: The inhibitory activity of the compounds of the present invention against POLRMT were determined by assays based on Bergbrede, T., et al., “An adaptable high-throughput technology enabling the identification of specific transcription modulators,” SLAC Discov., 22, 378-386 (2017).
The ability of some compounds of the present invention to inhibit POLRMT were determined in a homogeneous TR-FRET Assay using high-throughput screening in a 384-well plate format. This method is used to monitor the activity of mitochondrial transcription through measurement of its product, a 407 bp long RNA transcript. Detection of the product is facilitated by hybridization of two DNA-oligonucleotide probes to specific and adjacent sequences within the RNA product sequence. Upon annealing of the probes, two fluorophores are coupled directly to an acceptor nucleotide probe (ATTO647, 5′), or introduced via a coupled streptavidin with a biotinylated donor nucleotide probe (Europium cryptate) that is brought into sufficient proximity to serve as a fluorescence-donor-acceptor pair. Thus, a FRET signal at 665 nm is generated upon excitation at 340 nm.
Proteins used as transcription factors (POLRMT: NP_005026.3, TFAM: NP_003192.1, TFB2M: NP_071761.1) are diluted from their stocks to working concentrations of 1 μM, 20 μM and 4 μM respectively, in a dilution buffer containing 20 mM Tris-HCl (pH 8.0), 200 mM NaCl, 10% (v/v) glycerol, 1 mM Dithiothreitol (DTT), 0.5 mM EDTA.
DNA template is a pUC18 plasmid with the mitochondrial light strand promotor sequence (1-477) cloned between HindIII and BamHI sites. The DNA template is restriction linearized proximal to the promotor 3′-end (pUC-LSP).
The reaction mixture (10 uL) containing 7.5 nM POLRMT, 15 nM of TFB2M, 30 nM of TFAM, 0.5 nM of DNA template and 500 μM nucleotide triphosphate mix (NTPs) in a reaction buffer (containing 10 mM Tris-HCl (pH 7.5), 10 mM MgCl2, 40 mM NaCl, 10 mM DTT, 0.005% (w/v) Tween-20, 160 units/ml Rnase inhibitor and 0.1 mg/mL BSA) are dispensed to compounds in microplates, using a Thermo Multidrop® dispenser, and incubated at 37° C. in a VWR INCU-Line incubator for 60 minutes after mixing. No nucleotide triphosphate mix is added to negative control samples. Microplates with compounds to be tested in the assay are prepared from 10 mM compound stocks in 100% DMSO, equal amounts of DMSO without any compound are added to positive control and negative control samples.
During the incubation, a mix of the detection reagents is prepared in a buffer such that the enzymatic reaction is terminated due to chelating of Mg-ions and increased ionic strength, containing 50 mM Tris-HCl (pH 7.5), 700 mM NaCl, 20 mM EDTA, and 0.010% (w/v) Tween-20. Europium-streptavidin is pre-incubated with a 200-fold molar excess of a random sequence oligonucleotide to block unspecific binding of oligo, for two hours at ambient temperature in the dark. Afterwards, the blocked Europium-streptavidin is kept on ice until use.
At the end of the enzymatic reaction time, 5 μL detection oligo mix in the detection buffer is added, and assay plates are mixed and kept at ambient temperature for one hour, protected from light. The concentration of the Acceptor nucleotide oligo (e.g., ATTO647N-5′-[…]-3′) and Donor nucleotide oligo (e.g., bio-5′-AACACATCTCT(-bio)GCCAAACCCCA-bio-3′) in each assay well is 1 nM, and 3 nM, respectively.
After incubation with oligo mix, 5 μL of pre-blocked Europium-streptavidin reagent is dispensed to each assay well, assay plates are again mixed and kept at ambient temperature for one hour, protected from light.
The generated signal is measured with BMG Pherastar microtiter plate reader with a TRF light unit, using excitation at 340 nm, an integration time of 200 μs, and a delay time of 100 μs, before detection at 620 nm and 665 nm. The ratio of donor- and acceptor-fluorescence is used as a measure of the generated transcript product (i.e. enzymatic activity).

Chain of POLRMT (O00411 42-1230): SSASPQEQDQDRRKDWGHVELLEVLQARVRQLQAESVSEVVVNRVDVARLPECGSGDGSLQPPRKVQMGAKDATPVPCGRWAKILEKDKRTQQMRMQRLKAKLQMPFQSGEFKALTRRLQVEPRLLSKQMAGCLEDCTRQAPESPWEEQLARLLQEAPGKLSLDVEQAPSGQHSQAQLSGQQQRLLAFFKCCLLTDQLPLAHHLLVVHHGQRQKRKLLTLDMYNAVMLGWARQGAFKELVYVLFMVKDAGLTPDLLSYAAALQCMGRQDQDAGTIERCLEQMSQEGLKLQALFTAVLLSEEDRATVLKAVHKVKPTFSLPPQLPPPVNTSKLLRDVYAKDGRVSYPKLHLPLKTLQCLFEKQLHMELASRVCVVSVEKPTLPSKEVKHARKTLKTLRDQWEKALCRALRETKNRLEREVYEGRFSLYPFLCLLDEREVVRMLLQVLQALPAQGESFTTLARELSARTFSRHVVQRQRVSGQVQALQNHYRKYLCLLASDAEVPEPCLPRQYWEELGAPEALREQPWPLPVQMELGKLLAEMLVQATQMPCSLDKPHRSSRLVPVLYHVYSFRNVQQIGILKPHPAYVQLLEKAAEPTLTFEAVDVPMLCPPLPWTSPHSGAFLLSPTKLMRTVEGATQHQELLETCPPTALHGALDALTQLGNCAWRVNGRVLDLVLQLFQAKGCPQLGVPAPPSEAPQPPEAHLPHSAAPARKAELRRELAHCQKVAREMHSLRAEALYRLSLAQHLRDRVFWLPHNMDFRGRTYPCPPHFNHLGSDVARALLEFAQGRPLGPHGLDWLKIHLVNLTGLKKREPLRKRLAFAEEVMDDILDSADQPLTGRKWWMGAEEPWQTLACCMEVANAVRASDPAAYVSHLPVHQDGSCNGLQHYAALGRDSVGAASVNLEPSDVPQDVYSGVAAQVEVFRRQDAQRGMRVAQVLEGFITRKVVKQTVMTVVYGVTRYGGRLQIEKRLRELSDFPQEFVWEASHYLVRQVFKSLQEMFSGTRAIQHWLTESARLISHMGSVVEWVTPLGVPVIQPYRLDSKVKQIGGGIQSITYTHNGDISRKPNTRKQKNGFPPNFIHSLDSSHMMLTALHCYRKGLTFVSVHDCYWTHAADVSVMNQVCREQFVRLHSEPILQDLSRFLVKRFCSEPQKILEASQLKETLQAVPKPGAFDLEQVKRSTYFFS

Compound | IC50
CC(=O)N1CCCC(Oc2ccc3c(-c4ccccc4C)c[nH]c(=O)c3c2)C1 (stereo not drawn) [Example 42, 7-((1-acetylpiperidin-3-yl)oxy)-4-(o-tolyl)isoquinolin-1(2H)-one] | 7 µM
C[C@@H](Oc1ccc2c(-c3ccc(F)cc3Cl)c[nH]c(=O)c2c1)C(=O)N1CCN(C)CC1 [Example 131, (R)-4-(2-chloro-4-fluorophenyl)-7-((1-(4-methylpiperazin-1-yl)-1-oxopropan-2-yl)oxy)isoquinolin-1(2H)-one] | 1 µM
C[C@@H](Oc1ccc2c(-c3ccc(F)cc3Cl)c[nH]c(=O)c2c1)C(=O)N1CCOCC1(C)C [Example 107, (R)-4-(2-chloro-4-fluorophenyl)-7-((1-(3,3-dimethylmorpholino)-1-oxopropan-2-yl)oxy)isoquinolin-1(2H)-one] | 0.2 µM
Cc1ccccc1-c1c[nH]c(=O)c2cc(NC(C)C(=O)N3CCOCC3)ccc12 (stereo not drawn) [Example 46] | 2 µM
O=c1[nH]cc(-c2ccc(F)cc2Cl)c2ccc(O)cc12 [Example 2, 4-(2-chloro-4-fluorophenyl)-7-hydroxyisoquinolin-1(2H)-one] | > 100 µM
C[C@@H](Oc1ccc2c(-c3ccc(F)cc3Cl)c[nH]c(=O)c2c1)C(=O)N1CCO[C@@H](C(=O)O)C1 [Example 120, (R)-4-((R)-2-((4-(2-chloro-4-fluorophenyl)-1-oxo-1,2-dihydroisoquinolin-7-yl)oxy)propanoyl)morpholine-2-carboxylic acid] | 0.3 µM
CC(C)Oc1ccc2c(-c3ccc(F)cc3Cl)c[nH]c(=O)c2c1 [Example 7, 4-(2-chloro-4-fluorophenyl)-7-isopropoxyisoquinolin-1(2H)-one] | 0.8 µM
Cc1ccccc1-c1c[nH]c(=O)c2cc(NC(C)C(N)=O)ccc12 (stereo not drawn) [Example 68] | 11 µM
Cc1sccc1-c1c[nH]c(=O)c2cc(OCC#N)ccc12 [Example 133, 2-((4-(2-methylthiophen-3-yl)-1-oxo-1,2-dihydroisoquinolin-7-yl)oxy)acetonitrile] | 1 µM
C[C@@H](Oc1ccc2c(-c3ccc(F)cc3Cl)c[nH]c(=O)c2c1)C(=O)N1C2CCC1COC2 [Example 92, 7-(((2R)-1-(3-oxa-8-azabicyclo[3.2.1]octan-8-yl)-1-oxopropan-2-yl)oxy)-4-(2-chloro-4-fluorophenyl)isoquinolin-1(2H)-one] | 0.08 µM
Cc1ccccc1-c1c[nH]c(=O)c2cc(CC(C)C(=O)N3CCCCC3)ccc12 (stereo not drawn) [Example 41, 7-(2-methyl-3-oxo-3-(piperidin-1-yl)propyl)-4-(o-tolyl)isoquinolin-1(2H)-one] | 1 µM
CC(=O)Nc1ccc2c(-c3ccccc3C)c[nH]c(=O)c2c1 [Example 31, N-(1-oxo-4-(o-tolyl)-1,2-dihydroisoquinolin-7-yl)acetamide] | 8 µM
COC[C@@H]1COCCN1C(=O)[C@@H](C)Oc1ccc2c(-c3ccc(F)cc3Cl)c[nH]c(=O)c2c1 [Example 102, 4-(2-chloro-4-fluorophenyl)-7-(((R)-1-((R)-3-(methoxymethyl)morpholino)-1-oxopropan-2-yl)oxy)isoquinolin-1(2H)-one] | 0.7 µM
CC(=O)NCc1ccc2c(-c3ccccc3C)c[nH]c(=O)c2c1 [Example 39, N-((1-oxo-4-(o-tolyl)-1,2-dihydroisoquinolin-7-yl)methyl)acetamide] | > 100 µM
C[C@@H](Oc1ccc2c(-c3ccc(F)cc3Cl)c[nH]c(=O)c2c1)C(=O)N1CCOCC1 [Example 79, (R)-4-(2-chloro-4-fluorophenyl)-7-((1-morpholino-1-oxopropan-2-yl)oxy)isoquinolin-1(2H)-one] | 0.05 µM
Cc1ccccc1-c1c[nH]c(=O)c2cc(O[C@H](C)C(=O)N3CCCC(S(C)(=O)=O)C3)ccc12 (single isomer, unassigned) [Example 97] | 0.3 µM
C[C@@H](Oc1ccc2c(-c3ccc(F)cc3Cl)c[nH]c(=O)c2c1)C(=O)O [Example 90, (R)-2-((4-(2-chloro-4-fluorophenyl)-1-oxo-1,2-dihydroisoquinolin-7-yl)oxy)propanoic acid] | 1 µM
Cc1ccccc1-c1c[nH]c(=O)c2cc(O[C@H](C)C(=O)N3CCC[C@H](C(=O)O)C3)ccc12 [Example 22, (S)-1-((R)-2-((1-oxo-4-(o-tolyl)-1,2-dihydroisoquinolin-7-yl)oxy)propanoyl)piperidine-3-carboxylic acid] | 0.04 µM

Continued, values first:

IC50 | Compound
0.03 µM | Cc1ccccc1-c1c[nH]c(=O)c2cc(OCC(F)(F)F)ccc12 [Example 65, 4-(o-tolyl)-7-(2,2,2-trifluoroethoxy)isoquinolin-1(2H)-one]
0.2 µM | Cc1ccccc1-c1c[nH]c(=O)c2cc(OCC#N)ccc12 [Example 36, 2-((1-oxo-4-(o-tolyl)-1,2-dihydroisoquinolin-7-yl)oxy)acetonitrile]
35 µM | Cc1ccccc1-c1c[nH]c(=O)c2cc(OCC(=O)N(C)C)ccc12 [Example 8, N,N-dimethyl-2-((1-oxo-4-(o-tolyl)-1,2-dihydroisoquinolin-7-yl)oxy)acetamide]
0.4 µM | Cc1ccccc1-c1c[nH]c(=O)c2cc(OC(C)C(N)=O)ccc12 (single isomer, unassigned) [Example 73]
12 µM | CCc1ccccc1-c1c[nH]c(=O)c2cc(OCC(N)=O)ccc12 [Example 138, 2-((4-(2-ethylphenyl)-1-oxo-1,2-dihydroisoquinolin-7-yl)oxy)acetamide]
22 µM | COCC(=O)Nc1ccc2c(-c3ccccc3C)c[nH]c(=O)c2c1 [Example 32, 2-methoxy-N-(1-oxo-4-(o-tolyl)-1,2-dihydroisoquinolin-7-yl)acetamide]
17 µM | Cc1ccccc1-c1c[nH]c(=O)c2cc(OC(C)C(N)=O)ccc12 (single isomer, unassigned) [Example 72]
6 µM | COCC(Oc1ccc2c(-c3ccccc3C)c[nH]c(=O)c2c1)C(=O)O (stereo not drawn) [Example 51, 3-methoxy-2-((1-oxo-4-(o-tolyl)-1,2-dihydroisoquinolin-7-yl)oxy)propanoic acid]
0.3 µM | CC(C#N)Oc1ccc2c(-c3ccccc3Cl)c[nH]c(=O)c2c1 (single isomer, unassigned) [Example 57, 2-((4-(2-chlorophenyl)-1-oxo-1,2-dihydroisoquinolin-7-yl)oxy)propanenitrile]
3 µM | Cc1c(F)cccc1-c1c[nH]c(=O)c2cc(OCC(N)=O)ccc12 [Example 136, 2-((4-(3-fluoro-2-methylphenyl)-1-oxo-1,2-dihydroisoquinolin-7-yl)oxy)acetamide]
2 µM | CC(C#N)Oc1ccc2c(-c3ccccc3Cl)c[nH]c(=O)c2c1 (single isomer, unassigned) [Example 58, 2-((4-(2-chlorophenyl)-1-oxo-1,2-dihydroisoquinolin-7-yl)oxy)propanenitrile]
12 µM | Cc1ccccc1-c1c[nH]c(=O)c2cc(NC(C)C(N)=O)ccc12 (stereo not drawn) [Example 67, 2-((1-oxo-4-(o-tolyl)-1,2-dihydroisoquinolin-7-yl)amino)propanamide]
0.9 µM | Cc1ccccc1-c1c[nH]c(=O)c2cc(OC(C)C#N)ccc12 (single isomer, unassigned) [Example 13, 2-((1-oxo-4-(o-tolyl)-1,2-dihydroisoquinolin-7-yl)oxy)propanenitrile]

Same assay, conditions: quinolinone compounds (Table 2)

Compound | IC50
Cc1ccccc1-c1cc(=O)[nH]c2cc(O[C@H](C)C(=O)N(C)C)ccc12 (single isomer, unassigned) [Example Q7] | 9 µM
Cc1ccccc1-c1cc(=O)[nH]c2cc(OCC(C)C)ccc12 [Example Q12, 7-isobutoxy-4-(o-tolyl)quinolin-2(1H)-one] | 18 µM
